The record followed here is patent US11999782B2, “Therapeutic agents for the treatment of diseases associated with undesired cell proliferation” (Fundació Privada Institutció Catalana de Recerca I Estudis …, priority 2009, dated 2024).

This assay concerns LIF expression in PCTC cells. As to the kind of experiment: LIF mRNA by qRT-PCR in PCTCs of human GBM. It counts as cell-based. The following applies: PCTCs from 11 human GBMs, 100 pM TGFβ1, 3 hours, medium without serum. On the procedure: FIG. 3. TGFβ induces the expression of LIF in PCTC and GBM neurospheres. (A) PCTC cells of the 11 samples of the indicated GEM (GBM1-11) were treated with 100 pM TGFβ1 for 3 hours in medium without serum or left untreated, and the expression levels of LIF were determined by means of qRT-PCR. The g-actin was determined as an internal normalization control. (B) GBM neurosphere cells were treated as in A and the expression levels of LIF were determined by means of qRT-PCR as in A. (C) GBM neurospheres were incubated with 100 pM TGFβ1 and/or 2 μM TβRI inhibitor for 3 hours in medium without serum and the mRNA levels of LIF were determined by means of qRT-PCR as in A. (D) GBM1 neurospheres were incubated with 100 pM TGFβ1, TGFβ2 and TGFβ3 for 3 hours in medium without serum and the mRNA levels of LIF were determined by means of qRT-PCR as in A. (E) The levels of LIF protein secreted were determined by means of ELISA in GBM1 neurospheres after 48 hours of treatment with 100 pM TGFβ1. […]
qRT-PCR was performed using Taqman probes from Applied Biosystems, according to the manufacturer's recommendations. The reactions were carried out in a ABI 7000 sequence detector (Perkin Elmer) and the results were expressed as the fold change calculated by means of the DDCt method relative to the control sample or the first quantified sample. […]
In general terms: Real-time PCR tracks product formation cycle by cycle.

“TGFβ: TGFβ1 (R&D Systems), used at 100 pM according to the figure legends”: the “levels of LIF mRNA in PCTCs” value is “induced LIF in all the PCTCs assayed”.
